# In US11000033B2, “Ketone or oxime compound, and herbicide” (NISSAN CHEMICAL CORPORATION, priority 2014, dated 2021):
# Legend:
# Assay type in all cases: in vivo
# [1] = tested on: Stellaria media; assay: Test Example 4: herbicidal effect by soil treatment (symbol P); settings: for P (Stellaria media) herbicidal effect grade / Herbicidal effect grade, P: Stellaria media: application herbicide amount 320 g/ha; for P: Stellaria media, herbicidal effect grade: 320 g/ha
# In short: (§1)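 Seeds were sown in sterilized diluvial soil, covered with about 1.5 cm of soil, and the soil surface was sprayed with a water-diluted emulsion of the compound at a predetermined rate. Plants grew in a greenhouse at 25° C. to 30° C.; effects were scored visually 3 weeks after application.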
# [2] = tested on: Alopecurus myosuroides; assay: Test Example 4: herbicidal effect by soil treatment (symbol J); settings: for J (Alopecurus myosuroides) herbicidal effect grade / Herbicidal effect grade, J: Alopecurus myosuroides: application herbicide amount 320 g/ha; for J: Alopecurus myosuroides, herbicidal effect grade: 320 g/ha
# In short: as §1
# [3] = tested on: Lolium multiflorum Lam.; assay: Test Example 4: herbicidal effect by soil treatment (symbol K); settings: for K (Lolium multiflorum Lam.) herbicidal effect grade / Herbicidal effect grade, K: Lolium multiflorum Lam.: application herbicide amount 320 g/ha; for K: Lolium multiflorum Lam., herbicidal effect grade: 320 g/ha
# In short: as §1
# [4] = tested on: Echinochloa crus-galli var. crus-galli; assay: Test Example 4: herbicidal effect by soil treatment (symbol H); settings: for H (Echinochloa crus-galli var. crus-galli) herbicidal effect grade / Herbicidal effect grade, H: Echinochloa crus-galli var. crus-galli: application herbicide amount 320 g/ha; for H: Echinochloa crus-galli var. crus-galli, herbicidal effect grade: 320 g/ha
# In short: as §1
# [5] = tested on: Chenopodium album; assay: Test Example 4: herbicidal effect by soil treatment (symbol O); settings: application herbicide amount 320 g/ha
# In short: as §1
Structure (SMILES),P (Stellaria media) herbicidal effect grade [1],J (Alopecurus myosuroides) herbicidal effect grade [2],K (Lolium multiflorum Lam.) herbicidal effect grade [3],H (Echinochloa crus-galli var. crus-galli) herbicidal effect grade [4],also measured
CSCCON=C(C)CC1CC(O)=C(c2c(C)cc(C)cc2C)C1=O (centres unmarked) [1-029],0 (Herbicidal ratio of 5% or lower (almost no effect)),3 (Herbicidal ratio of 40% or higher and lower than 70%),5 (Herbicidal ratio of 90% or more (almost completely withered)),5 (Herbicidal ratio of 90% or more (almost completely withered)),
CON=CC(C)(C)C1CC(O)=C(c2c(C)cc(C)cc2C)C1=O (centres unmarked) [1-030],,3 (Herbicidal ratio of 40% or higher and lower than 70%),5 (Herbicidal ratio of 90% or more (almost completely withered)),2 (Herbicidal ratio of 20% or higher and lower than 40%),
CON=C(C)C(C)C1CC(O)=C(c2c(C)cc(C)cc2C)C1=O (centres unmarked) [1-032],,5 (Herbicidal ratio of 90% or more (almost completely withered)),5 (Herbicidal ratio of 90% or more (almost completely withered)),5 (Herbicidal ratio of 90% or more (almost completely withered)),
CON=C(C)CC1CC(OC(=O)C2(C)CC2(Cl)Cl)=C(c2c(C)cc(C)cc2C)C1=O (centres unmarked) [1-036],,5 (Herbicidal ratio of 90% or more (almost completely withered)),5 (Herbicidal ratio of 90% or more (almost completely withered)),5 (Herbicidal ratio of 90% or more (almost completely withered)),
COCCOC1=C(c2c(C)cc(C)cc2C)C(=O)C(CC(C)=NOC)C1 (centres unmarked) [1-037],0 (Herbicidal ratio of 5% or lower (almost no effect)),0 (Herbicidal ratio of 5% or lower (almost no effect)),0 (Herbicidal ratio of 5% or lower (almost no effect)),0 (Herbicidal ratio of 5% or lower (almost no effect)),O (Chenopodium album) herbicidal effect grade [5]: 0 (Herbicidal ratio of 5% or lower (almost no effect))
CON=C(C)CC1CC(OC(=O)C(C)(C)F)=C(c2c(C)cc(C)cc2C)C1=O (centres unmarked) [1-039],,5 (Herbicidal ratio of 90% or more (almost completely withered)),5 (Herbicidal ratio of 90% or more (almost completely withered)),5 (Herbicidal ratio of 90% or more (almost completely withered)),
COCCON=C(C)CC1CC(O)=C(c2c(C)cc(C)cc2C)C1=O (centres unmarked) [1-041],0 (Herbicidal ratio of 5% or lower (almost no effect)),5 (Herbicidal ratio of 90% or more (almost completely withered)),5 (Herbicidal ratio of 90% or more (almost completely withered)),5 (Herbicidal ratio of 90% or more (almost completely withered)),
CON=C(C)CC1CC(OC(=O)C(C)Cl)=C(c2c(C)cc(C)cc2C)C1=O (centres unmarked) [1-042],0 (Herbicidal ratio of 5% or lower (almost no effect)),5 (Herbicidal ratio of 90% or more (almost completely withered)),5 (Herbicidal ratio of 90% or more (almost completely withered)),5 (Herbicidal ratio of 90% or more (almost completely withered)),O (Chenopodium album) herbicidal effect grade [5]: 0 (Herbicidal ratio of 5% or lower (almost no effect))
CON=C(C)CC1CC(OC(=O)COc2ccc(Cl)cc2)=C(c2c(C)cc(C)cc2C)C1=O (centres unmarked) [1-044],,5 (Herbicidal ratio of 90% or more (almost completely withered)),5 (Herbicidal ratio of 90% or more (almost completely withered)),5 (Herbicidal ratio of 90% or more (almost completely withered)),
CON=C(CC1CC(O)=C(c2c(C)cc(C)cc2C)C1=O)c1ccccn1 (centres unmarked) [1-045],0 (Herbicidal ratio of 5% or lower (almost no effect)),0 (Herbicidal ratio of 5% or lower (almost no effect)),4 (Herbicidal ratio of 70% or higher and lower than 90%),0 (Herbicidal ratio of 5% or lower (almost no effect)),
CC(CC1CC(O)=C(c2c(C)cc(C)cc2C)C1=O)=NOCC=CCl (centres unmarked) [1-056],0 (Herbicidal ratio of 5% or lower (almost no effect)),5 (Herbicidal ratio of 90% or more (almost completely withered)),5 (Herbicidal ratio of 90% or more (almost completely withered)),5 (Herbicidal ratio of 90% or more (almost completely withered)),
CON=C(CC1CC(OC(=O)COc2ccccc2)=C(c2c(C)cc(C)cc2C)C1=O)C1CC1 (centres unmarked) [1-063],,5 (Herbicidal ratio of 90% or more (almost completely withered)),5 (Herbicidal ratio of 90% or more (almost completely withered)),5 (Herbicidal ratio of 90% or more (almost completely withered)),
CON=C(C)CC1CC(OC(=O)C(C)(C)Oc2ccccc2Cl)=C(c2c(C)cc(C)cc2C)C1=O (centres unmarked) [1-064],0 (Herbicidal ratio of 5% or lower (almost no effect)),5 (Herbicidal ratio of 90% or more (almost completely withered)),5 (Herbicidal ratio of 90% or more (almost completely withered)),5 (Herbicidal ratio of 90% or more (almost completely withered)),
CON=C(C)CC1CC(OC(=O)C(C)(C)Oc2cccc(Cl)c2)=C(c2c(C)cc(C)cc2C)C1=O (centres unmarked) [1-065],0 (Herbicidal ratio of 5% or lower (almost no effect)),5 (Herbicidal ratio of 90% or more (almost completely withered)),5 (Herbicidal ratio of 90% or more (almost completely withered)),5 (Herbicidal ratio of 90% or more (almost completely withered)),
CON=C(C)CC1CC(OC(=O)COc2ccc(OC)cc2)=C(c2c(C)cc(C)cc2C)C1=O (centres unmarked) [1-069],0 (Herbicidal ratio of 5% or lower (almost no effect)),5 (Herbicidal ratio of 90% or more (almost completely withered)),5 (Herbicidal ratio of 90% or more (almost completely withered)),5 (Herbicidal ratio of 90% or more (almost completely withered)),
CON=C(C)CC1CC(OC(=O)COc2ccc(F)cc2)=C(c2c(C)cc(C)cc2C)C1=O (centres unmarked) [1-073],,5 (Herbicidal ratio of 90% or more (almost completely withered)),5 (Herbicidal ratio of 90% or more (almost completely withered)),5 (Herbicidal ratio of 90% or more (almost completely withered)),
CON=C(CC1CC(O)=C(c2c(C)cc(C)cc2C)C1=O)C1CCCC1 (centres unmarked) [1-078],,,,,"P: Stellaria media, herbicidal effect grade [1]: 0 (Herbicidal ratio of 5% or lower (almost no effect)); J: Alopecurus myosuroides, herbicidal effect grade [2]: 3 (Herbicidal ratio of 40% or higher and lower than 70%); K: Lolium multiflorum Lam., herbicidal effect grade [3]: 5 (Herbicidal ratio of 90% or more (almost completely withered)); H: Echinochloa crus-galli var. crus-galli, herbicidal effect grade [4]: 2 (Herbicidal ratio of 20% or higher and lower than 40%)"
CON=C(C)CC1CC(OC(=O)COc2ccc(C(C)=O)cc2)=C(c2c(C)cc(C)cc2C)C1=O (centres unmarked) [1-080],,,,,"P: Stellaria media, herbicidal effect grade [1]: 0 (Herbicidal ratio of 5% or lower (almost no effect)); J: Alopecurus myosuroides, herbicidal effect grade [2]: 5 (Herbicidal ratio of 90% or more (almost completely withered)); K: Lolium multiflorum Lam., herbicidal effect grade [3]: 5 (Herbicidal ratio of 90% or more (almost completely withered)); H: Echinochloa crus-galli var. crus-galli, herbicidal effect grade [4]: 5 (Herbicidal ratio of 90% or more (almost completely withered))"
CON=C(C)CC1CC(OC(=O)COc2ccc(I)cc2)=C(c2c(C)cc(C)cc2C)C1=O (centres unmarked) [1-082],,,,,"P: Stellaria media, herbicidal effect grade [1]: 0 (Herbicidal ratio of 5% or lower (almost no effect)); J: Alopecurus myosuroides, herbicidal effect grade [2]: 5 (Herbicidal ratio of 90% or more (almost completely withered)); K: Lolium multiflorum Lam., herbicidal effect grade [3]: 5 (Herbicidal ratio of 90% or more (almost completely withered)); H: Echinochloa crus-galli var. crus-galli, herbicidal effect grade [4]: 5 (Herbicidal ratio of 90% or more (almost completely withered))"
CON=C(C)CC1CC(OC(=O)COCC(F)(F)F)=C(c2c(C)cc(C)cc2C)C1=O (centres unmarked) [1-092],,,,,"P: Stellaria media, herbicidal effect grade [1]: 0 (Herbicidal ratio of 5% or lower (almost no effect)); J: Alopecurus myosuroides, herbicidal effect grade [2]: 4 (Herbicidal ratio of 70% or higher and lower than 90%); K: Lolium multiflorum Lam., herbicidal effect grade [3]: 5 (Herbicidal ratio of 90% or more (almost completely withered)); H: Echinochloa crus-galli var. crus-galli, herbicidal effect grade [4]: 5 (Herbicidal ratio of 90% or more (almost completely withered))"
CON=C(CC1CC(O)=C(c2c(C)cc(Br)cc2C)C1=O)C(C)C (centres unmarked) [9-001],,,,,"Herbicidal effect grade, P: Stellaria media [1]: 0 (Herbicidal ratio of 5% or lower (almost no effect)); Herbicidal effect grade, J: Alopecurus myosuroides [2]: 3 (Herbicidal ratio of 40% or higher and lower than 70%); Herbicidal effect grade, K: Lolium multiflorum Lam. [3]: 5 (Herbicidal ratio of 90% or more (almost completely withered)); Herbicidal effect grade, H: Echinochloa crus-galli var. crus-galli [4]: 5 (Herbicidal ratio of 90% or more (almost completely withered))"
CON=C(CC1CC(O)=C(c2c(C)cc(C#C[Si](C)(C)C)cc2C)C1=O)C(C)C (centres unmarked) [9-005],,,,,"Herbicidal effect grade, P: Stellaria media [1]: 0 (Herbicidal ratio of 5% or lower (almost no effect)); Herbicidal effect grade, J: Alopecurus myosuroides [2]: 1 (Herbicidal ratio of 5% or higher and lower than 20%); Herbicidal effect grade, K: Lolium multiflorum Lam. [3]: 4 (Herbicidal ratio of 70% or higher and lower than 90%); Herbicidal effect grade, H: Echinochloa crus-galli var. crus-galli [4]: 0 (Herbicidal ratio of 5% or lower (almost no effect))"
